One block for each compound: values may come before it.
Tested on: oxytetracycline binding aptamer (OBA) (DNA, aptamer) CGTACGGAATTCGCTAGCACGTTGACGCTGGTGCCCGGTTGTGGTGCGAGTGTTGTGTGGATCCGAGCTCCACGTG
Assay: magnetic capture, UV-Vis of unbound at 368 nm
Details: 100 mM NaCl, 5 mM KCl, 2 mM MgCl2, 1 mM CaCl2, 20 mM Tris-HCl pH 7.6, room temperature, 2 h

- binding (5 µM compound, 85 ± 2.8% captured): yes
SMILES: CN(C)[C@@H]1C(=O)C(C(N)=O)=C(O)[C@@]2(O)C(=O)C3=C(O)c4c(O)cccc4[C@@](C)(O)[C@H]3[C@H](O)[C@@H]12

- binding (tested at 5 µM, 9.0 ± 1.3% non-specifically adsorbed): no
SMILES: COc1ccc2cc([C@H](C)C(=O)O)ccc2c1

- binding (tested at 5 µM, 8.7 ± 3.7% non-specifically adsorbed): no
SMILES: O=C(O)Cc1ccccc1Nc1c(Cl)cccc1Cl

From publication PMC6127930 (2018)
